17 compounds from patent US20250339569A1, “CARBONIC ANHYDRASE IX LIGANDS” (priority 2021, published 2025) can be followed below.

SMILES strings stand for the structures. Starred links: 1 amine or outer side, 2 acyl side, 3 side chain; linkers in the order of their positions; H or OH if unused. Positions of bridges follow the written chain, without caps; N, C: chain ends. Non-standard residues stand in square brackets, D forms with d. Residues, ends and D or L forms follow the SMILES beside them. *: point of attachment. mXylylene = c1cc(C[*:1])cc(C[*:2])c1; Hydrocinnamoyl = O=C(CCc1ccccc1)*; tBuAla = CC(C)(C)C[C@H](N)C(=O)O; Pen = CC(C)(S)[C@H](N)C(=O)O; Tle = CC(C)(C)[C@H](N)C(=O)O; Hexanoyl = CCCCCC(=O)*; PhAc = O=C(Cc1ccccc1)*; Aib = CC(C)(N)C(=O)O; Bz = O=C(c1ccccc1)*; Sar = CNCC(=O)O

The first assay addresses T1, CAIX-expressing human HT-29 colorectal cancer cells (Homo sapiens, UniProt Q16790).
T1 construct: CAIX-expressing human HT-29 colorectal cancer cells; host or cells: HT-29 human colorectal cancer cells
Put plainly: FACS binding assay (IC50 determination, competition with tracer 3BP-2776 or 3BP-4149).
Settings: not given
The protocol:
In order to determine binding of compounds according to the present invention to CAIX-expressing cells, a FACS binding assay was established.
CAIX-expressing human HT-29 colorectal cancer cells (DSMZ, RRID: CVCL_0320) were cultured in McCoys's 5A modified medium (Biochrom, #F1015) including 10% fetal calf serum (FCS), 2 mM L-glutamine, 100 U/ml penicillin and 100 μg/mL streptomycin. Cells were detached with Accutase (Biolegend, #423201) and washed in FACS buffer (PBS including 1% FCS). Cells were diluted in FACS buffer to a final concentration of 500.000 cells per ml. 200 μL of the cell suspension were transferred to a u-shaped non-binding 96-well plate (Greiner) and cells were washed in ice-cold FACS buffer.
When biotinylated compounds were used an additional incubation step with 1 μg/mL APC-Streptavidin (Miltenyi; #130-106-791) in 50 μL FACS buffer for 30 minutes on ice was performed.
Cells were washed twice with ice-cold FACS buffer and analyzed in an Attune NxT flow cytometer (Thermo Fisher). Median fluorescence intensities (MFI) of the APC/Cy5-channel were calculated by Attune NxT software. MFI values were plotted against peptide concentration and four parameter logistic (4PL) curve fitting and EC50/pEC50 or IC50/pIC50 calculations were performed using ActivityBase software.
A general note: Flow cytometry measures light scatter and fluorescence of single cells or particles in a stream.
In the case of `CC(C)C[C@@H]1NC(=O)[C@H](Cc2c[nH]c3ccccc23)NC(=O)[C@H](CC(=O)O)NC(=O)CNC(=O)[C@H](CCC(=O)O)NC(=O)[C@@H](NC(=O)[C@H](Cc2ccc(O)cc2)NC(=O)[C@@H](NC(=O)c2ccccc2)C(C)C)CSCc2cccc(c2)CSC[C@@H](C(N)=O)NC(=O)[C@H](CCC(N)=O)NC(=O)[C@H](Cc2c[nH]c3ccccc23)NC(=O)[C@H]([C@@H](C)O)NC1=O` [3BP-3108] (Bz-VYCEGDWLTWQC-NH2; linker 3-12 via mXylylene), the IC50 was < 10 nM.
On the same count and under the same terms, with `CC(C)C[C@@H]1NC(=O)[C@H](Cc2c[nH]c3ccccc23)NC(=O)[C@H](CC(=O)O)NC(=O)CNC(=O)[C@H](CCC(=O)O)NC(=O)[C@@H](NC(=O)[C@H](Cc2ccc(O)cc2)NC(=O)[C@@H](NC(=O)Cc2ccccc2)C(C)C)CSCc2cccc(c2)CSC[C@@H](C(N)=O)NC(=O)[C@H](CCC(N)=O)NC(=O)[C@H](Cc2c[nH]c3ccccc23)NC(=O)[C@H]([C@@H](C)O)NC1=O` [3BP-3109] (PhAc-VYCEGDWLTWQC-NH2; linker 3-12 via mXylylene) the figure was < 10 nM.

Staying with this assay, now noted: FACS competition on HT-29 cells, Tracer ID 3BP-2776 (10 nM, biotin-labeled), 4° C., 1 hour; read-out: pIC50 category (activity) (converted).
For the compound `CC(=O)N[C@H](C(=O)N[C@@H](Cc1ccc(O)cc1)C(=O)N[C@H]1CSCc2cccc(c2)CSC[C@@H](C(N)=O)NC(=O)[C@H](CCC(N)=O)NC(=O)[C@H](Cc2c[nH]c3ccccc23)NC(=O)[C@H]([C@@H](C)O)NC(=O)[C@@H](CC(C)C)NC(=O)[C@H](Cc2c[nH]c3ccccc23)NC(=O)[C@H](CC(=O)O)NC(=O)CNC(=O)[C@H](CCC(=O)O)NC1=O)C(C)C` [3BP-3048] (Ac-VYCEGDW[dL]TWQC-NH2; linker 3-12 via mXylylene), the IC50 is 100 to 794 nM.
Still for that read-out and setting: next, `CC(=O)N[C@H](C(=O)N[C@@H](Cc1ccc(O)cc1)C(=O)N[C@H]1CSCc2cccc(c2)CSC[C@@H](C(N)=O)NC(=O)[C@H](CCC(N)=O)NC(=O)[C@H](Cc2c[nH]c3ccccc23)NC(=O)[C@@H]([C@H](C)O)NC(=O)[C@H](CC(C)C)NC(=O)[C@H](Cc2c[nH]c3ccccc23)NC(=O)[C@H](CC(=O)O)NC(=O)CNC(=O)[C@H](CCC(=O)O)NC1=O)C(C)C` [3BP-3049] (Ac-VYCEGDWL[dT]WQC-NH2; linker 3-12 via mXylylene): 100 to 794 nM; `CC(=O)N[C@H](C(=O)N[C@@H](Cc1ccc(O)cc1)C(=O)N[C@H]1CSCc2cccc(c2)CSC[C@@H](C(N)=O)NC(=O)[C@H](CCC(N)=O)NC(=O)[C@H](Cc2c[nH]c3ccccc23)NC(=O)[C@H]([C@@H](C)O)NC(=O)[C@H](CC(C)C)NC(=O)[C@H](Cc2c[nH]c3ccccc23)NC(=O)[C@H](CC(=O)O)NC(=O)CNC(=O)[C@H](C)NC1=O)C(C)C` [3BP-3052] (Ac-VYCAGDWLTWQC-NH2; linker 3-12 via mXylylene): < 10 nM.
Same read-out and setting: next, `CC(=O)N[C@H](C(=O)N[C@@H](Cc1ccc(O)cc1)C(=O)N[C@H]1CSCc2cccc(c2)CSC[C@@H](C(N)=O)NC(=O)[C@H](CCC(N)=O)NC(=O)[C@H](Cc2c[nH]c3ccccc23)NC(=O)[C@H]([C@@H](C)O)NC(=O)[C@H](CC(C)C)NC(=O)[C@H](Cc2c[nH]c3ccccc23)NC(=O)[C@H](C)NC(=O)CNC(=O)[C@H](CCC(=O)O)NC1=O)C(C)C` [3BP-3053] (Ac-VYCEGAWLTWQC-NH2; linker 3-12 via mXylylene): 10 to 79.4 nM; `CC(=O)N[C@H](C(=O)N[C@@H](Cc1ccc(O)cc1)C(=O)N[C@H]1CSCc2cccc(c2)CSC[C@@H](C(N)=O)NC(=O)[C@H](CCC(N)=O)NC(=O)[C@H](Cc2c[nH]c3ccccc23)NC(=O)[C@H]([C@@H](C)O)NC(=O)[C@H](C)NC(=O)[C@H](Cc2c[nH]c3ccccc23)NC(=O)[C@H](CC(=O)O)NC(=O)CNC(=O)[C@H](CCC(=O)O)NC1=O)C(C)C` [3BP-3055] (Ac-VYCEGDWATWQC-NH2; linker 3-12 via mXylylene): 100 to 794 nM.
Still for that read-out and setting: next, `CC(=O)N[C@H](C(=O)N[C@@H](Cc1ccc(O)cc1)C(=O)N[C@H]1CSCc2cccc(c2)CSC[C@@H](C(N)=O)NC(=O)[C@H](CCC(N)=O)NC(=O)[C@H](Cc2c[nH]c3ccccc23)NC(=O)[C@H](C)NC(=O)[C@H](CC(C)C)NC(=O)[C@H](Cc2c[nH]c3ccccc23)NC(=O)[C@H](CC(=O)O)NC(=O)CNC(=O)[C@H](CCC(=O)O)NC1=O)C(C)C` [3BP-3056] (Ac-VYCEGDWLAWQC-NH2; linker 3-12 via mXylylene): 10 to 79.4 nM; `CC(=O)N[C@H](C(=O)N[C@@H](Cc1ccc(O)cc1)C(=O)N[C@H]1CSCc2cccc(c2)CSC[C@@H](C(N)=O)NC(=O)[C@H](CCC(N)=O)NC(=O)[C@H](Cc2c[nH]c3ccccc23)NC(=O)[C@H]([C@@H](C)O)NC(=O)[C@H](CC(C)C)NC(=O)[C@H](Cc2c[nH]c3ccccc23)NC(=O)[C@H](CC(=O)O)NC(=O)C(C)(C)NC(=O)[C@H](CCC(=O)O)NC1=O)C(C)C` [3BP-3059] (Ac-VYCE[Aib]DWLTWQC-NH2; linker 3-12 via mXylylene): < 10 nM; `CC(=O)N[C@H](C(=O)N[C@@H](Cc1ccc(O)cc1)C(=O)N[C@H]1CSCc2cccc(c2)CSC[C@@H](C(N)=O)NC(=O)[C@H](CCC(N)=O)NC(=O)[C@H](Cc2c[nH]c3ccccc23)NC(=O)[C@H]([C@@H](C)O)NC(=O)[C@H](CC(C)C)NC(=O)[C@H](Cc2c[nH]c3ccccc23)NC(=O)[C@H](CC(=O)O)NC(=O)CN(C)C(=O)[C@H](CCC(=O)O)NC1=O)C(C)C` [3BP-3060] (Ac-VYCE[Sar]DWLTWQC-NH2; linker 3-12 via mXylylene): < 10 nM.
For the compound `CC(=O)N[C@H](C(=O)N[C@@H](Cc1ccc(O)cc1)C(=O)N[C@H]1CSCc2cccc(c2)CSC[C@@H](C(N)=O)NC(=O)[C@H](CCC(N)=O)NC(=O)[C@H](Cc2c[nH]c3ccccc23)NC(=O)[C@H]([C@@H](C)O)NC(=O)[C@H](CC(C)C)NC(=O)[C@H](Cc2c[nH]c3ccccc23)NC(=O)C(C)(C)NC(=O)CNC(=O)[C@H](CCC(=O)O)NC1=O)C(C)C` [3BP-3061] (Ac-VYCEG[Aib]WLTWQC-NH2; linker 3-12 via mXylylene), the IC50 is 100 to 794 nM.
The same measure, in the same setting: next, `CC(=O)N[C@H](C(=O)N[C@@H](Cc1ccc(O)cc1)C(=O)N[C@@H]1C(=O)N[C@@H](CCC(=O)O)C(=O)NCC(=O)N[C@@H](CC(=O)O)C(=O)N[C@@H](Cc2c[nH]c3ccccc23)C(=O)N[C@@H](CC(C)C)C(=O)N[C@@H]([C@@H](C)O)C(=O)N[C@@H](Cc2c[nH]c3ccccc23)C(=O)N[C@@H](CCC(N)=O)C(=O)N[C@H](C(N)=O)CSCc2cccc(c2)CSC1(C)C)C(C)C` [3BP-3063] (Ac-VY[Pen]EGDWLTWQC-NH2; linker 3-12 via mXylylene): 10 to 79.4 nM; `CC(=O)N[C@H](C(=O)N[C@@H](Cc1ccc(O)cc1)C(=O)N[C@H]1CSCc2cccc(c2)CSC(C)(C)[C@@H](C(N)=O)NC(=O)[C@H](CCC(N)=O)NC(=O)[C@H](Cc2c[nH]c3ccccc23)NC(=O)[C@H]([C@@H](C)O)NC(=O)[C@H](CC(C)C)NC(=O)[C@H](Cc2c[nH]c3ccccc23)NC(=O)[C@H](CC(=O)O)NC(=O)CNC(=O)[C@H](CCC(=O)O)NC1=O)C(C)C` [3BP-3064] (Ac-VYCEGDWLTWQ[Pen]-NH2; linker 3-12 via mXylylene): < 10 nM.
Still for that read-out and setting: with `CC(=O)N[C@H](C(=O)N[C@@H](Cc1ccc(O)cc1)C(=O)N[C@H]1CSCc2cccc(c2)CSC[C@@H](C(N)=O)NC(=O)[C@H](CCC(N)=O)NC(=O)[C@H](Cc2c[nH]c3ccccc23)NC(=O)[C@H]([C@@H](C)O)NC(=O)[C@H](CC(C)(C)C)NC(=O)[C@H](Cc2c[nH]c3ccccc23)NC(=O)[C@H](CC(=O)O)NC(=O)CNC(=O)[C@H](CCC(=O)O)NC1=O)C(C)C` [3BP-3065] (Ac-VYCEGDW[tBuAla]TWQC-NH2; linker 3-12 via mXylylene) the figure was < 10 nM; with `CC(=O)N[C@H](C(=O)N[C@@H](Cc1ccc(O)cc1)C(=O)N[C@H]1CSCc2cccc(c2)CSC[C@@H](C(N)=O)NC(=O)[C@H](CCC(N)=O)NC(=O)[C@H](Cc2c[nH]c3ccccc23)NC(=O)[C@H]([C@@H](C)O)NC(=O)[C@H](C(C)(C)C)NC(=O)[C@H](Cc2c[nH]c3ccccc23)NC(=O)[C@H](CC(=O)O)NC(=O)CNC(=O)[C@H](CCC(=O)O)NC1=O)C(C)C` [3BP-3066] (Ac-VYCEGDW[Tle]TWQC-NH2; linker 3-12 via mXylylene), 10 to 79.4 nM; with `CCCCCC(=O)N[C@H](C(=O)N[C@@H](Cc1ccc(O)cc1)C(=O)N[C@H]1CSCc2cccc(c2)CSC[C@@H](C(N)=O)NC(=O)[C@H](CCC(N)=O)NC(=O)[C@H](Cc2c[nH]c3ccccc23)NC(=O)[C@H]([C@@H](C)O)NC(=O)[C@H](CC(C)C)NC(=O)[C@H](Cc2c[nH]c3ccccc23)NC(=O)[C@H](CC(=O)O)NC(=O)CNC(=O)[C@H](CCC(=O)O)NC1=O)C(C)C` [3BP-3107] (Hexanoyl-VYCEGDWLTWQC-NH2; linker 3-12 via mXylylene), < 10 nM.
For `CC(C)C[C@@H]1NC(=O)[C@H](Cc2c[nH]c3ccccc23)NC(=O)[C@H](CC(=O)O)NC(=O)CNC(=O)[C@H](CCC(=O)O)NC(=O)[C@@H](NC(=O)[C@H](Cc2ccc(O)cc2)NC(=O)[C@@H](NC(=O)CCc2ccccc2)C(C)C)CSCc2cccc(c2)CSC[C@@H](C(N)=O)NC(=O)[C@H](CCC(N)=O)NC(=O)[C@H](Cc2c[nH]c3ccccc23)NC(=O)[C@H]([C@@H](C)O)NC1=O` [3BP-3110] (Hydrocinnamoyl-VYCEGDWLTWQC-NH2; linker 3-12 via mXylylene), the IC50 is < 10 nM.
